Source: patent publication US7705203B2, “Benzoate inductible promoters” (Purdue Research Foundation, priority 2002, dated 2010)

Columns and labels:
BRE = assay: Activation of BRE fused to GFP in fungal protoplasts (surface receptor test); assay type: cell-based
Method: While not necessary to understand to practice the invention, a more complicated mechanism of induction may include a surface receptor that binds to benzoate and which then initiates either some kind of signal transduction cascade or the release of a TF that then culminates in the activation of the BPH promoter (FIGS. 12C and D). The hypothesis of a surface receptor was tested by using the p-NH2-benzoate coupled to agarose (as described above) as a non-cleavable external probe. Fungal protoplasts containing the BRE fused to GFP were then prepared, and activation of the BRE (production of the GFP marker) by addition of the agarose-immobilized benzoate derivative to the fungal protoplasts was scored. […] In order to investigate whether the disparity of size between the larger agarose beads and fungal protoplasts may have caused steric problems in binding of the inducer, smaller ligands still incapable of uptake are constructed and utilized to confirm a non-membrane surface location.
The hypothesis of a surface receptor was tested by using the p-NH2-benzoate coupled to agarose (as described above) as a non-cleavable external probe. Fungal protoplasts containing the BRE fused to GFP were then prepared, and activation of the BRE (production of the GFP marker) by addition of the agarose-immobilized benzoate derivative to the fungal protoplasts was scored. […]

bphA gene = assay: RNA (Northern) blot of bphA gene transcription in mycelia; assay type: cell-based, Aspergillus niger
Method: The time course gene expression induction was examined by analyzing total RNA at different times after adding benzoic acid. Northern (RNA) blots were carried out using total RNA extracted from mycelia grown for different periods of time in the presence of benzoic acid. Initially, the fungus was inoculated in CM medium (Pontecorvo (1953) Adv. Genet. 5: 141-238) for 24 hours, transferred to benzoate-containing medium (0.1% w/v) for different times, and total RNA was extracted using the Rneasy Plant Total RNA kit (Qiagen Inc, Valencia, Calif.) according to the manufacturer's instructions. Total RNA was resolved on a formaldehyde-agarose gel and transferred to a Hybond-N nylon membrane (Amersham Life Sci. Inc, Arlington Heights, Ill.). Radiolabeled BPH probe was allowed to hybridize to the membrane, as described above. Northern blot methods were also carried out as recommended (Amersham).
Different benzoate concentrations and inducers were used to better characterize the inducibility of the bphA gene. Gene expression was assayed by Northern blots. Benzoate 4-hydroxylase activity is also assessed by enzymatic assays to confirm the inducibility at the transcriptional level described by Van Gorcom et al. ((1990) Mol. Gen. Genet. 223, 192-197). Inducibility is also verified by reverse transcription of mRNAs produced under induction conditions.
To verify the inducibility of the bphA gene by benzoic acid, A. niger was inoculated in complete medium and grown for 24 hours before being transferred to fresh medium containing 0.1% benzoic acid. Mycelia were harvested after different periods of induction, and total RNA was extracted.

O=C(O)c1ccccc1 [benzoic acid]
GFP fluorescence in the BRE-GFP transformed line (BRE): induced GFP fluorescence | induction of transcription of the bphA gene (bphA gene; 8 mM inducer, RNA blot (FIG. 4)): induced | benzoic acid concentrations as low as ... induce transcription of the bphA gene (bphA gene; concentration curves): 0.8 mM
